According to patent publication US7381824B2 (Agouron Pharmaceuticals, Inc., priority 2003, dated 2008):
Where two headings read alike, the source gives them in different places.

Key:
[1] = system: human umbilical vein endothelial cells (HUVEC); test: HUVEC+VEGF proliferation assay; assay type: cell-based; settings: VEGF-stimulated HUVEC proliferation, MTT, 72 hours
Description: HUVEC+VEGF Proliferation Assay
This assay determines the ability of a test compound to inhibit the growth factor-stimulated proliferation of human umbilical vein endothelial cells (“HUVEC”). HUVEC cells (passage 3-4, Clonetics, Corp.) were thawed into EGM2 culture medium (Clonetics Corp) in T75 flasks. Fresh EGM2 medium was added to the flasks 24 hours later. Four or five days later, cells were exposed to another culture medium (F12K medium supplemented with 10% fetal bovine serum (FBS), […] endothelial cell growth supplement (ECGS), and 0.1 mg/mL heparin). Exponentially-growing HUVEC cells were used in experiments thereafter. Ten to twelve thousand HUVEC cells were plated in 96-well dishes in […] of rich, culture medium (described above). The cells were allowed to attach for 24 hours in this medium. The medium was then removed by aspiration and […] of starvation media (F12K+1% FBS) was added to each well. After 24 hours, […] of test agent dissolved in 1% DMSO in starvation medium or this vehicle alone was added into each treatment well; the final DMSO concentration was 0.1%. One hour later, […] of VEGF (30 ng/mL) in starvation media was added to all wells except those containing untreated controls; the final VEGF concentration was 6 ng/mL. Cellular proliferation was quantified 72 hours later by MTT dye reduction, at which time cells were exposed for 4 hours MTT (Promega Corp.). Dye reduction was stopped by addition of a stop solution (Promega Corp.) and absorbance at 595 nm was determined on a 96-well spectrophotometer plate reader.

[2] = target: T1, human vascular endothelial growth factor receptor 2 (VEGF-R2) (Homo sapiens, UniProt P35968, DEL940-989/E990V); test: VEGF-R2 coupled spectrophotometric assay (FLVK, unphosphorylated VEGF-R2D50); assay type: biochemical
T1 construct: VEGF-R2D50 contains residues 806-939 and 990-1171; made in house; host or cells: baculovirus/insect cell system
Excerpt: This construct determines the ability of a test compound to inhibit tyrosine kinase activity. A construct (VEGF-R2D50) of the cytosolic domain of human vascular endothelial growth factor receptor 2 (VEGF-R2) lacking the 50 central residues of the 68 residues of the kinase insert domain was expressed in a baculovirus/insect cell system. Of the 1356 residues of full-length VEGF-R2, VEGF-R2D50 contains residues 806-939 and 990-1171, and also one point mutation (E990V) within the kinase insert domain relative to wild-type VEGF-R2. Autophosphorylation of the purified construct was performed by incubation of the enzyme at a concentration of […] in the presence of 3 mM ATP and 40 mM MgCl2 in 100 mM HEPES, pH 7.5, containing 5% glycerol and 5 mM DTT, at 4° C. for 2 h. […] See Parast et al., Biochemistry, 37, 16788-16801 (1998).
VEGF-R2 Assay: Coupled Spectrophotometric (FLVK-P) Assay
The production of ADP from ATP that accompanies phosphoryl transfer was coupled to oxidation of NADH using phosphoenolpyruvate (PEP) and a system having pyruvate kinase (PK) and lactic dehydrogenase (LDH). The oxidation of NADH was monitored by following the decrease of absorbance at 340 nm (e340=6.22 cm^−1 mM^−1) using a Beckman DU 650 spectrophotometer. Assay conditions for phosphorylated VEGF-R2D50 (indicated as FLVK-P in the tables below) were the following: 1 mM PEP; […] NADH; 50 units of LDH/mL; 20 units of PK/mL; 5 mM DTT; 5.1 mM poly(E4Y1); 1 mM ATP; and 25 mM MgCl2 in 200 mM HEPES, pH 7.5. Assay conditions for unphosphorylated VEGF-R2D50 (indicated as FLVK in the tables) were the following: 1 mM PEP; […] NADH; 50 units of LDH/mL; 20 units of PK/mL; 5 mM DTT; 20 mM poly(E4Y1); 3 mM ATP; and 60 mM MgCl2 and 2 mM MnCl2 in 200 mM HEPES, pH 7.5. Assays were initiated with 5 to 40 nM of enzyme. K1 values were determined by measuring enzyme activity in the presence of varying concentrations of test compounds. The percent inhibition at 50 nM (% inhibition @ 50 nM) was determined by linear least-squares regression analysis of absorbance as a function of time. The binding inhibitions were fitted to equation as described by Morrison. The data were analyzed using Enzyme Kinetic and Kaleidagraph software.

human FGF-R1 = target: T2, human FGF-R1 (Homo sapiens, UniProt P11362, C488A/C584S/L457V); test: FGF-R spectrophotometric assay; assay type: biochemical
T2 construct: starting from the endogenous methionine residue 456 to glutamate 766; made in house; host or cells: baculovirus vector expression system
Description: The intracellular kinase domain of human FGF-R1 was expressed using the baculovirus vector expression system starting from the endogenous methionine residue 456 to glutamate 766, according to the residue numbering system of Mohammadi et al., Mol. Cell. Biol., 16, 977-989 (1996). In addition, the construct also has the following 3 amino acid substitutions: L457V, C488A, and C584S.
The spectrophotometric assay was carried out as described above for VEGF-R2, except for the following changes in concentration: FGF-R=50 nM, ATP=2 mM, and poly(E4Y1)=15 mM.

[3] = unphosphorylated VEGF-R2D50 (FLVK)

T1 sequence (P35968 with tags, fused parts or gaps DEL940-989/E990V limits assumed): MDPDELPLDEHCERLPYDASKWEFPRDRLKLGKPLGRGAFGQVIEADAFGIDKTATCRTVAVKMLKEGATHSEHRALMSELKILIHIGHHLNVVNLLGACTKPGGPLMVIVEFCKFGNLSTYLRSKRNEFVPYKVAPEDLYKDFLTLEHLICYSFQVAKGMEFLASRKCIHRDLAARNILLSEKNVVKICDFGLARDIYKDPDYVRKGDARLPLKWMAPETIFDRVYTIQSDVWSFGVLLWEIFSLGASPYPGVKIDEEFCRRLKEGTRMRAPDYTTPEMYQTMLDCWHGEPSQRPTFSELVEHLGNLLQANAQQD
T2 sequence (P11362 456-766 L457V/C488A/C584S): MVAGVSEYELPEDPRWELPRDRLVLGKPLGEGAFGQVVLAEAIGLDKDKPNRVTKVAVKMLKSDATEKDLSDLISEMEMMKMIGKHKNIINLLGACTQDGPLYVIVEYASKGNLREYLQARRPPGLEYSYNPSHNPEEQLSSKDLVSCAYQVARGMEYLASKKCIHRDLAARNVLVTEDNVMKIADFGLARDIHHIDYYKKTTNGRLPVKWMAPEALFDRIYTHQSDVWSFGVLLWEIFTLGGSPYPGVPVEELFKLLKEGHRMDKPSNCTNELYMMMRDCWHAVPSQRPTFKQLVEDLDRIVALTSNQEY

## CCCCNC(=O)c1c(C)oc2cc(Oc3ccnc4cc(OCCN5CCCC5)ccc34)ccc12 [Example 44, N-butyl-2-methyl-6-{[7-(2-pyrrolidin-1-ylethoxy)quinolin-4-yl]oxy}-1-benzofuran-3-carboxamide]
[1]; Homo sapiens
  IC50: < 1 nM
[2]; [3]
  Ki: 1 to 10 nM

## CNC(=O)c1c(C)oc2cc(Oc3ccnc4cc(Br)ccc34)ccc12 [Example 19, 6-[(7-bromoquinolin-4-yl)oxy]-N,2-dimethy-1-benzofuran-3-carboxamide]
[1]; Homo sapiens
  IC50: 1 to 10 nM
[2]; [3]
  Ki: 1 to 10 nM

## Cc1cc2ccc(Oc3ccnc4cc(OCCN5CCOCC5)ccc34)cc2o1 [Example 126, 4-(2-Methyl-benzofuran-6-yloxy)-7-(2-morpholin-4-yl-ethoxy)-quinoline]
[2]
  Ki: 32 nM
[2]; [3]
  Ki: > 10 nM
Human FGF-R1
  inhibition at 1 µM: 38%

## CNC(=O)c1c(C)oc2cc(Oc3ccnc4cc(I)ccc34)ccc12 [Example 6, 6-[(7-iodoquinolin-4-yl)oxy]-N,2-dimethyl-1-benzofuran-3-carboxamide]
[1]; Homo sapiens
  IC50: 1 to 10 nM
[2]; [3]
  Ki: 1 to 10 nM

## CNC(=O)c1c(C)oc2cc(Oc3ccnc4cc(OCCN5CCOCC5)ccc34)ccc12 [Example 36, N,2-dimethyl-6-{[7-(2-morpholin-4-ylethoxy)quinolin-4-yl]oxy)-1-benzofuran-3-carboxamide]
[1]; Homo sapiens
  IC50: < 1 nM
[2]; [3]
  Ki: 1 to 10 nM

## CNC(=O)c1c(C)oc2cc(Oc3ccnc4cc(OCCN(C)C)ccc34)ccc12 [Example 37, 6-({7-[2-(dimethylamino)ethoxy]quinolin-4-yl}oxy)-N,2-dimethyl-1-benzofuran-3-carboxamide]
[1]; Homo sapiens
  IC50: < 1 nM
[2]; [3]
  Ki: 1 to 10 nM

## CCCNC(=O)c1c(C)sc2cc(Oc3ccnc4cc(OC)ccc34)ccc12 [Example 50, [(7-methoxyquinolin-4-yl)oxy]-2-methyl-N-propyl-1-benzothiophene-3-carboxamide]
[1]; Homo sapiens
  IC50: 1 to 10 nM
[2]; [3]
  Ki: 1 to 10 nM

## COc1ccc2c(Oc3ccc4c(C(=O)NCCCO)c(C)oc4c3)ccnc2c1 [Example 67, N-(3-hydroxypropyl)-6-[(7-methoxyquinolin-4-yl)oxy]-2-methyl-1-benzofuran-3-carboxamide]
[1]; Homo sapiens
  IC50: 1 to 10 nM
[2]; [3]
  Ki: 1 to 10 nM

## CCCCNC(=O)c1c(C)oc2cc(Oc3ccnc4cc(OCCN5CCOCC5)ccc34)ccc12 [Example 45, N-butyl-2-methyl-6-{[7-(2-morpholin-4-ylethoxy)quinolin-4-yl]oxy}-1-benzofuran-3-carboxamide]
[1]; Homo sapiens
  IC50: 1 to 10 nM
[2]; [3]
  Ki: 1 to 10 nM

## COc1ccc2c(Oc3ccc4c(C(=O)NC[C@H]5CCCO5)c(C)oc4c3)ccnc2c1 [Example 84, 6-[(7-methoxyquinolin-4-yl)oxy]-2-methyl-N-[(2R)tetrahydrofuran-2-ylmethyl]-1-benzofuran-3-carboxamide]
[1]; Homo sapiens
  IC50: 1 to 10 nM
[2]; [3]
  Ki: 1 to 10 nM

## Cc1oc2cc(Oc3ccnc4cc(OC(F)(F)F)ccc34)ccc2c1C(=O)NC1CC1 [Example 73, N-cyclopropyl-2-methyl-6-{[7-(trifluoromethoxy)quinolin-4-yl]oxy}-1-benzofuran-3-carboxamide]
[1]; Homo sapiens
  IC50: 1 to 10 nM
[2]; [3]
  Ki: 1 to 10 nM

## CNC(=O)c1c(C)sc2cc(Oc3ccnc4cc(-c5cccnc5)ccc34)ccc12 [Example 14, N2dimethyl-6-[(7-pyridin-3-ylquinolin-4-yl)oxy]-1-benzothiophene-3-carboxamide]
[1]; Homo sapiens
  IC50: 1 to 10 nM
[2]; [3]
  Ki: 1 to 10 nM

## COc1ccc2c(Oc3ccc4c(C(=O)NCc5ccccn5)c(C)oc4c3)ccnc2c1 [Example 66, 6-[(7-methoxyquinolin-4-yl)oxy]-2-methyl-N-(pyridin-2-ylmethyl)-1-benzofuran-3-carboxamide]
[1]; Homo sapiens
  IC50: 1 to 10 nM
[2]; [3]
  Ki: > 10 nM

## COc1ccc2c(Oc3ccc4cc(C)oc4c3)ccnc2c1 [Example 125, 7-Methoxy-4-(2-methyl-benzofuran-6-yloxy)-quinoline]
[2]
  inhibition at 1 µM: 68%
Human FGF-R1
  inhibition at 1 µM: 32%

## COc1ccc2c(Oc3ccc4c(C(=O)NC5CC5)c(C)sc4c3)ccnc2c1 [Example 48, N-cyclopropyl-6-[(7-methoxyquinolin-4-yl)oxy]-2-methyl-1-benzothiophene-3-carboxamide]
[1]; Homo sapiens
  IC50: 1 to 10 nM
[2]; [3]
  Ki: 1 to 10 nM

## CNC(=O)c1c(C)sc2cc(Oc3ccnc4cc(-c5ccccn5)ccc34)ccc12 [Example 31]
[1]
  IC50: < 1 nM
[2]; [3]
  Ki: 1 to 10 nM

## COCCNC(=O)c1c(C)oc2cc(Oc3ccnc4cc(OC)ccc34)ccc12 [Example 88, N-(2-methoxyethyl)-6-[(7-methoxyquinolin-4-yl)oxy]-2-methyl-1-benzofuran-3-carboxamide]
[1]; Homo sapiens
  IC50: 1 to 10 nM
[2]; [3]
  Ki: 1 to 10 nM

## COc1ccc2c(Oc3ccc4c(C(=O)NC5CCCCC5)c(C)sc4c3)ccnc2c1 [Example 52, N-cyclohexyl-6-[(7-methoxyquinolin-4-yl)oxy]-2-methyl-1-benzothiophene-3-carboxamide]
[1]; Homo sapiens
  IC50: 1 to 10 nM
[2]; [3]
  Ki: 1 to 10 nM

## COc1ccc2c(Oc3ccc4c(C(=O)NC5CCCC5)c(C)sc4c3)ccnc2c1 [Example 53, N-cyclopentyl-6-[(7-methoxyquinolin-4-yl)oxy]-2-methyl-1-benzothiophene-3-carboxamide]
[1]; Homo sapiens
  IC50: 1 to 10 nM
[2]; [3]
  Ki: 1 to 10 nM

## CNC(=O)c1c(C)sc2cc(Oc3ccnc4cc(-c5ccncc5)ccc34)ccc12 [Example 10, N-2-dimethyl-6-[(7-pyridin-4-ylquinolin-4-yl]oxy]-1-benzothiophene-3-carboxamide]
[1]; Homo sapiens
  IC50: 1 to 10 nM
[2]; [3]
  Ki: 1 to 10 nM

## CNC(=O)c1c(C)oc2cc(Oc3ccnc4cc(-c5ccccn5)ccc34)ccc12 [Example 9, N-2-dimethyl-6-[(7-pyridin-2-ylquinolin-4-yl)oxy]-1-benzofuran-3-carboxamide]
[1]; Homo sapiens
  IC50: 1 to 10 nM
[2]; [3]
  Ki: < 1 nM
